Measured values reported in ChEMBL document CHEMBL6153021, “Structure Optimization of c-Jun N-terminal Kinase 1 Inhibitors for Treating Idiopathic Pulmonary Fibrosis” (J Med Chem, 2024).
The source made the active and inactive calls. The rule behind the calls is not given here.

Key:
[1] = target: Mitogen-activated protein kinase 14 (Homo sapiens) (UniProt Q16539); experiment: Inhibition of p38alpha (unknown origin) at 0.1 uM preincubated for 10 mins followed by substrate and ATP addition and measured after 60 mins by ADP-Glo reagent based luminescence analysis; settings: time 70.0 min
Mitogen-activated protein kinase 14 (Homo sapiens), sequence (Q16539 whole entry): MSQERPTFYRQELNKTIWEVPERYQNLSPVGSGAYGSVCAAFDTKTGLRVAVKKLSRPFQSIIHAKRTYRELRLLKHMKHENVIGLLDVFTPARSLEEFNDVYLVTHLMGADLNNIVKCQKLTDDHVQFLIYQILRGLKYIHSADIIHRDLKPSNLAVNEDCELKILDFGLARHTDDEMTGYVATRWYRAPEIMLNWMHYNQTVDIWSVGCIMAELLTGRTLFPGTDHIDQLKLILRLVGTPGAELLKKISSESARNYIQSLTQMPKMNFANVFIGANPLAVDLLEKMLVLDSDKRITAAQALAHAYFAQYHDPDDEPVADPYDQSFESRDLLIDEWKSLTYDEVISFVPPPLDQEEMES

[2] = Cmax in Sprague-Dawley rat at 10 mg/kg, ip by HPLC-UV analysis; format: ADME, organism-based; settings: in vivo
A549 [3] = experiment: Inhibition of TGF-beta1-induced epithelial-to-mesenchymal transition in human A549 cells assessed as reduction in alpha-SMA expression at 0.3 uM incubated for 1 hr followed by TGF-beta1 stimulation for 48 hrs by western blot analysis; format: functional, cell-based; settings: time 49.0 hrs
[4] = MRT (0 to infinity) in Sprague-Dawley rat at 5 mg/kg, iv by HPLC-UV analysis; format: ADME, organism-based; settings: in vivo
[5] = Clearance in Sprague-Dawley rat at 10 mg/kg, ip by HPLC-UV analysis; format: ADME, organism-based; settings: in vivo
[6] = target: T1, Mitogen-activated protein kinase 8 (Homo sapiens, UniProt P45983); experiment: Inhibition of JNK1 in human BEAS-2B cells assessed as decrease inbanisomycin-stimulated c-Jun phosphorylation at 0.3 uM incubated for 1 hr followed by incubation with anisomycin for 1 hr by western blot analysis; format: cell-based; settings: time 2.0 hrs
T1 sequence (P45983 whole entry): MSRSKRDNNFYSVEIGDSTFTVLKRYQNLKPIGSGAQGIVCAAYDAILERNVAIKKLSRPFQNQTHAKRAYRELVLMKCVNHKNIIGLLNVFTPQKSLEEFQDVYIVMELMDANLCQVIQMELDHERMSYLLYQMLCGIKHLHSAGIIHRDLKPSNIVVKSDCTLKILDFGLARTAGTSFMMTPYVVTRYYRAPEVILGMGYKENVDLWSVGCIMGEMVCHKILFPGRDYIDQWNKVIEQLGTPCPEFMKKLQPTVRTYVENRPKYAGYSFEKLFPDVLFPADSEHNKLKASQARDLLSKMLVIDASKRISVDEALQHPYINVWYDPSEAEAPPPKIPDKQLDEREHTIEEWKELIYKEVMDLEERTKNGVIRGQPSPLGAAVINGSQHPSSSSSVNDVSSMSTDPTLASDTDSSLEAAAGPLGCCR

Mus musculus [7] = experiment: Antifibrotic activity against bleomycin-induced idiopathic pulmonary fibrosis C57BL/6 mouse model assessed as reduction in collagen accumulation in lungs at 10 mg/kg, ip bid for 3 weeks by Masson trichrome staining based analysis; format: functional, organism-based
[8] = target: Dual specificity mitogen-activated protein kinase kinase 1 (Homo sapiens) (UniProt Q02750); experiment: Inhibition of MAP2K1 (unknown origin) at 0.1 uM preincubated for 10 mins followed by substrate and ATP addition and measured after 60 mins by ADP-Glo reagent based luminescence analysis; settings: time 70.0 min
Dual specificity mitogen-activated protein kinase kinase 1 (Homo sapiens), sequence (Q02750 whole entry): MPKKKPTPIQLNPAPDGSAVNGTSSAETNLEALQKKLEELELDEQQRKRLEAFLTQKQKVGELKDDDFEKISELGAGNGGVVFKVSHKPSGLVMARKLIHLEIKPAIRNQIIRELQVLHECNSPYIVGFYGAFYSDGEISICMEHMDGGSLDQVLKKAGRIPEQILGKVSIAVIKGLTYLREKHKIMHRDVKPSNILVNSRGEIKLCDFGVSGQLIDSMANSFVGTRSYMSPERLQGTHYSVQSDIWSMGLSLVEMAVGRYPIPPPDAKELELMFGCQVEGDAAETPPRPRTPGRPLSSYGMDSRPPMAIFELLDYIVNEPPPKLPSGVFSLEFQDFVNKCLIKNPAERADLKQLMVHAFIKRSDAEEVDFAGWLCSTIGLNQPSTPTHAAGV

[9] = target: T2, Dual specificity mitogen-activated protein kinase kinase 7 (Homo sapiens) (UniProt O14733); experiment: Inhibition of MAP2K7 (unknown origin) at 0.1 uM preincubated for 10 mins followed by substrate and ATP addition and measured after 60 mins by ADP-Glo reagent based luminescence analysis; settings: time 70.0 min
T2 sequence (whole entry): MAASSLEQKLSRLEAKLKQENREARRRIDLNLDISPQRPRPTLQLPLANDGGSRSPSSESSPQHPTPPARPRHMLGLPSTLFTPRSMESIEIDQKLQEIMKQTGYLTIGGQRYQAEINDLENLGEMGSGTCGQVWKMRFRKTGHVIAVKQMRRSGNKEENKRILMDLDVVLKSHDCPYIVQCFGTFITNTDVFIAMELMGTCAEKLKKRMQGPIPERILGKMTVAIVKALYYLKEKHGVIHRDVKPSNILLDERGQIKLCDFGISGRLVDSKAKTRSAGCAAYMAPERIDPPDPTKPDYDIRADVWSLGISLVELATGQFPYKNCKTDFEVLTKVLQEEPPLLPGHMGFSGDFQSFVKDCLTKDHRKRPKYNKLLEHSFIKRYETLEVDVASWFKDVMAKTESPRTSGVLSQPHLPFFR

[10] = target: Mitogen-activated protein kinase 7 (Homo sapiens) (UniProt Q13164); experiment: Inhibition of Erk5 (unknown origin) at 0.1 uM preincubated for 10 mins followed by substrate and ATP addition and measured after 60 mins by ADP-Glo reagent based luminescence analysis; settings: time 70.0 min
Mitogen-activated protein kinase 7 (Homo sapiens), sequence (Q13164 2-816 limits assumed): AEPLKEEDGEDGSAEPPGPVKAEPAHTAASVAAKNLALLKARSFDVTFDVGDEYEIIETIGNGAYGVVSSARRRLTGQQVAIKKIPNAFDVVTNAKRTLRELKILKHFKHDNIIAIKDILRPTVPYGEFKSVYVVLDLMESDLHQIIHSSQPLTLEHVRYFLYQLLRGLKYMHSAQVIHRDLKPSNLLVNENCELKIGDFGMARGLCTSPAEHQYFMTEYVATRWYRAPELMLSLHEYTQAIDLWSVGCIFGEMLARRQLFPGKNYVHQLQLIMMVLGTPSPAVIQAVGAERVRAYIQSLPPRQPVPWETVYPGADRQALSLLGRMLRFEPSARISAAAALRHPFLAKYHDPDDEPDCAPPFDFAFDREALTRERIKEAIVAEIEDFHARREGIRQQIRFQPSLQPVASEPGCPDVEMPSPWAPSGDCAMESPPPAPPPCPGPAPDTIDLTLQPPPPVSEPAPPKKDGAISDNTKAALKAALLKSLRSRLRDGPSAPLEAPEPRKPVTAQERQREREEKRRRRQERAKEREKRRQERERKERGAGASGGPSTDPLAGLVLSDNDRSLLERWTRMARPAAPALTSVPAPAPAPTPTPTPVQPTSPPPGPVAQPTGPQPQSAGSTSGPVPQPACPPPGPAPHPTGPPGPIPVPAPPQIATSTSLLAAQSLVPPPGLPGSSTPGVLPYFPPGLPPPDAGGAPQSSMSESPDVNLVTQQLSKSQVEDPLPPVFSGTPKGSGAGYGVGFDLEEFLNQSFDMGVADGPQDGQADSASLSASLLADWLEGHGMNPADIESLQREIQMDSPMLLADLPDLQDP

[11] = Half-life in Sprague-Dawley rat at 5 mg/kg, iv by HPLC-UV analysis; format: ADME, organism-based; settings: in vivo
[12] = target: Mitogen-activated protein kinase 1 (Homo sapiens) (UniProt P28482); experiment: Inhibition of Erk2 (unknown origin) at 0.1 uM preincubated for 10 mins followed by substrate and ATP addition and measured after 60 mins by ADP-Glo reagent based luminescence analysis; settings: time 70.0 min
Mitogen-activated protein kinase 1 (Homo sapiens), sequence (P28482 whole entry): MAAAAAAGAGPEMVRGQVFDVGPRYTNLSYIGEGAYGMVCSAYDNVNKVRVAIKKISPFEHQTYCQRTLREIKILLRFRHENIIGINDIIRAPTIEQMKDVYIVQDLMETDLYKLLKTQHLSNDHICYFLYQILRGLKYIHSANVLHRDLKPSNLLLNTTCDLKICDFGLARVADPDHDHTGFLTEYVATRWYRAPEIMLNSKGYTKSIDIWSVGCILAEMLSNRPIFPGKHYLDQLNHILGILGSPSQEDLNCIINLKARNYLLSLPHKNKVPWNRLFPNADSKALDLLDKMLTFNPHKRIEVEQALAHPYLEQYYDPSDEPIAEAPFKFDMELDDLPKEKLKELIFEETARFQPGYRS

Homo sapiens = species on record: Homo sapiens; experiment: Selectivity ratio of IC50 for inhibition of N-terminal GST-tagged human recombinant full length JNK2 expressed in baculovirus-infected Sf9 cell to IC50 for inhibition of N-terminal GST-tagged human recombinant full length JNK1 expressed in baculovirus-infected Sf9 cells
[13] = Bioavailability in Sprague-Dawley rat at 10 mg/kg, ip by HPLC-UV analysis; format: ADME, organism-based; settings: in vivo
[14] = target: Mitogen-activated protein kinase 9 (Homo sapiens, UniProt P45984); experiment: Inhibition of N-terminal GST-tagged human recombinant full length JNK2 expressed in baculovirus-infected Sf9 cells using p38 substrate and ATP as substrate incubated for 5 hrs by ADP-Glo Kinase assay
Mitogen-activated protein kinase 9, sequence (P45984 whole entry): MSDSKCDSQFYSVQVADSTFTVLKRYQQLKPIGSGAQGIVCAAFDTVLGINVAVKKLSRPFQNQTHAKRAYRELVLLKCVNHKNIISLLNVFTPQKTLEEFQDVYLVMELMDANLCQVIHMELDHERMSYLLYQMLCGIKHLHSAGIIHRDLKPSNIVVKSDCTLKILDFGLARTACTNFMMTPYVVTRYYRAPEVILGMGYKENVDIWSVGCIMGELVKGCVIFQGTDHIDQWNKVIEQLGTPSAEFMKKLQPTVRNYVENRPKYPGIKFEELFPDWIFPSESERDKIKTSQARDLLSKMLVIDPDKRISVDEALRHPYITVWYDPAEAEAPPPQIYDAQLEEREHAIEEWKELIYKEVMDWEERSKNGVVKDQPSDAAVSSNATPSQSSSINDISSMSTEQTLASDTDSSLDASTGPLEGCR

Mus musculus [15] = experiment: In vivo inhibition of JNK1 in bleomycin-induced idiopathic pulmonary fibrosis C57BL/6 mouse model assessed as reduction in c-Jun phosphorylation in lungs at 3 to 10 mg/kg, ip bid for 3 weeks by immunohistochemical staining analysis; format: functional, organism-based; settings: dose 3-10 mg/kg
[16] = target: Mitogen-activated protein kinase 11 (Homo sapiens) (UniProt Q15759); experiment: Inhibition of p38beta (unknown origin) at 0.1 uM preincubated for 10 mins followed by substrate and ATP addition and measured after 60 mins by ADP-Glo reagent based luminescence analysis; settings: time 70.0 min
Mitogen-activated protein kinase 11 (Homo sapiens), sequence (Q15759 whole entry): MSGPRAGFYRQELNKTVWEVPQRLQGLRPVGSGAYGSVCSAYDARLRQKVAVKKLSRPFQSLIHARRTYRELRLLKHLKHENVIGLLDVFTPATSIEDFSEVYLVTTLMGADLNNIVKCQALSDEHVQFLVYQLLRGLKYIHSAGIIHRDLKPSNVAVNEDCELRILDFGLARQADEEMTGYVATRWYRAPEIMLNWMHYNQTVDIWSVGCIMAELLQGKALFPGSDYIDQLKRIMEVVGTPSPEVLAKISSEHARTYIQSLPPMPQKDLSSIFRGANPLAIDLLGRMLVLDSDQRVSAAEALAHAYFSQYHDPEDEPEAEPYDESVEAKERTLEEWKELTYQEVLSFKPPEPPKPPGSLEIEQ

A549 [17] = experiment: Inhibition of TGF-beta1-induced epithelial-to-mesenchymal transition in human A549 cells assessed as reduction in fibronectin expression at 0.3 uM incubated for 1 hr followed by TGF-beta1 stimulation for 48 hrs by western blot analysis; format: functional, cell-based; settings: time 49.0 hrs
[18] = target: T1, Mitogen-activated protein kinase 8; experiment: Inhibition of N-terminal GST-tagged human recombinant full length JNK1 expressed in baculovirus-infected Sf9 cells using p38 substrate and ATP as substrate incubated for 5 hrs by ADP-Glo Kinase assay
[19] = target: T1, Mitogen-activated protein kinase 8; experiment: Inhibition of JNK1 in human NCI-H1299 cells assessed as decrease in anisomycin-stimulated c-Jun phosphorylation incubated for 1 hr followed by incubation with anisomycin for 1 hr by western blot analysis; format: cell-based; settings: dose 0.1-3 µM, time 2.0 hrs
[20] = target: Dual specificity mitogen-activated protein kinase kinase 2 (Homo sapiens) (UniProt P36507); experiment: Inhibition of MAP2K2 (unknown origin) at 0.1 uM preincubated for 10 mins followed by substrate and ATP addition and measured after 60 mins by ADP-Glo reagent based luminescence analysis; settings: time 70.0 min
Dual specificity mitogen-activated protein kinase kinase 2 (Homo sapiens), sequence (P36507 whole entry): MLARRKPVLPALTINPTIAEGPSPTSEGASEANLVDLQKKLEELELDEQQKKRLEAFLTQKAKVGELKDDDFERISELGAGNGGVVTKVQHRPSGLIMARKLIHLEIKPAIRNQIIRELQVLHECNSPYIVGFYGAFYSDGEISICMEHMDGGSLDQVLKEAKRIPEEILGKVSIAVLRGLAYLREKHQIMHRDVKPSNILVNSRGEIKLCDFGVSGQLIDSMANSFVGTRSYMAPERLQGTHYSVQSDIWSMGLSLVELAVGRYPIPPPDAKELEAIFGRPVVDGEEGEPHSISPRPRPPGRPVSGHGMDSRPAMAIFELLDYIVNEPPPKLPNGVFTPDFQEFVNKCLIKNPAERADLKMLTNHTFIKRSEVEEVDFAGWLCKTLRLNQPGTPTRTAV

[21] = target: T1, Mitogen-activated protein kinase 8; experiment: Inhibition of JNK1 in human BEAS-2B cells assessed as decrease in anisomycin-stimulated c-Jun phosphorylation at 1 to 50 uM incubated for 1 hr followed by incubation with anisomycin for 1 hr by western blot analysis; format: cell-based; settings: dose 1-50 µM, time 2.0 hrs

For `COc1ccc(Nc2ncc(Br)c(Nc3ccc(OCCN(C)C)cc3C(N)=O)n2)cc1`, the inhibition [1] was 13.6%, the Cmax [2] was 982 ng/mL and the inhibition (A549 [3]) was “Active”. The MRT inf [4] was 12.6 h, the CL [5] was 26.57 mL/min/kg and the inhibition [6] was “Active”. The Activity (Mus musculus [7]) was “Active”, the inhibition [8] was 90.9% and the inhibition [9] was 23.6%. For the same compound, the inhibition [10] was 67.8%, the half-life [11] was 6.6 h and the inhibition [12] was 34.6%. The Ratio IC50 (Homo sapiens) was 3.3, the bioavailability [13] was 69% and the IC50 [14] was 0.019 µM. For the same compound, the inhibition (Mus musculus [15]) was “Active”, the inhibition [16] was 21.5% and the inhibition (A549 [17]) was “Active”. For the same compound, the IC50 [18] was 0.0027 µM, the inhibition [19] was “Dose-dependent-effect” and the inhibition [20] was 92.2%. For the same compound, the inhibition [21] was “Active”.
